Data published in US7579325B2, “Drugs containing reduced of vitamin B2” (Eisai R & D Management Co., Ltd., priority 2001, dated 2009).

Key:
[1] = Effect on endotoxin shock model (LPS, mouse survival); type: in vivo, mice; conditions: for survival number / survival rate %: male ICR mice, 10 per group, 4 days after administration
Protocol: (§1) Riboflavin sodium phosphate (FMN-Na, JP grade) and leucoflavin sodium phosphate (FMN-H2) prepared in Example 1 were used.
Male mice (Slc: ICR, 6-week old) (10 mice per each test group) was administered intraperitoneally with lipopolysaccharide from E. coli serum type 0111-B4 (Sigma; abbreviated as “LPS” hereinbelow) at a dose of 15 mg/kg.
Six hours after the administration, each of riboflavin sodium phosphate (dosage: […] in dosage volumes of 0.25, 0.5 and 1 ml, respectively) and leucoflavin phosphate (dosage: 2.5, 5 and 10 mg/kg in dosage volumes of 0.25, 0.5 and 1 ml, respectively) which had been dissolved in physiological saline and sterilized by filtration was administered intraperitoneally. The survival rate was determined 4 days after the administration. In the control group, 1.0 ml of physiological saline was administered intraperitoneally instead of the drugs. The determination of the medicinal efficacy was conducted by χ^2 test.

E. coli E01292 strain = assay: Effect on E. coli-infected model (mouse survival); type: in vivo; conditions: for survival number / survival rate %: male ICR mice, 10 per group, 4 days after inoculation
Protocol: Twelve mg of riboflavin sodium phosphate (FMN-Na, JP grade) was dissolved in 40 ml of physiological saline and then added and mixed with 480 mg of sodium hydrosulfite to produce leucoflavin phosphate (FMN-H2).
Male mice (Slc: ICR, 8-week old) (10 mice per each test group) was administered intraperitoneally with each of riboflavin sodium phosphate (dosage: 12.5, 25, 50 and 100 mg/kg in dosage volumes of 0.125, 0.25, 0.5 and 1 ml, respectively) and leucoflavin phosphate (dosage: 1.25, 2.5, 5 and 10 mg/kg in dosage volumes of 0.125, 0.25, 0.5 and 1 ml, respectively) which had been dissolved in physiological saline and sterilized by filtration. Twenty-four hours after the administration, E. coli E01292 strain was inoculated subcutaneously at a dose of 5.3×10^7 CFU/mouse (suspended in 0.2 ml of physiological saline), and the survival rate was determined 4 days after the inoculation. In the control group, 1.0 ml of physiological saline was administered intraperitoneally instead of the drugs. The determination of the medicinal efficacy was conducted by χ^2 test.

[2] = tested on: Staphylococcus aureus BO-72 strain; assay: Effect on Staphylococcus aureus-infected model (mouse survival); type: in vivo; conditions: for survival number / survival rate %: male ICR mice, 10 per group, 10 days after inoculation
Protocol: as §1
Male mice (Slc: ICR, 8-week old) (10 mice per each test group) was administered intraperitoneally with each of riboflavin sodium phosphate (dosage: 25, 50 and 100 mg/kg in dosage volumes of 0.25, 0.5 and 1 ml, respectively) and leucoflavin phosphate (dosage: 2.5, 5 and 10 mg/kg in dosage volumes of 0.25, 0.5 and 1 ml, respectively) which had been dissolved in physiological saline and sterilized by filtration. Twenty-four hours after the administration, Staphylococcus aureus BO-72 strain was administered intravenously at a dose of 8.7×10^7 CFU/mouse (suspended in 0.2 ml of physiological saline), and the survival rate was determined 10 days after the inoculation. In the control group, 1.0 ml of physiological saline was administered intraperitoneally instead of the drugs. The determination of the medicinal efficacy was conducted by χ^2 test.

[3] = 2.5 mg/kg i.p. 6 h after LPS 15 mg/kg i.p.
[4] = 5 mg/kg i.p. 6 h after LPS 15 mg/kg i.p.
[5] = 10 mg/kg i.p. 6 h after LPS 15 mg/kg i.p.
[6] = 1.25 mg/kg i.p. 24 h before s.c. E. coli inoculation
[7] = 2.5 mg/kg i.p. 24 h before s.c. E. coli inoculation
[8] = 5 mg/kg i.p. 24 h before s.c. E. coli inoculation
[9] = 10 mg/kg i.p. 24 h before s.c. E. coli inoculation
[10] = 2.5 mg/kg i.p. 24 h before i.v. S. aureus
[11] = 5 mg/kg i.p. 24 h before i.v. S. aureus
[12] = 10 mg/kg i.p. 24 h before i.v. S. aureus
[13] = 20 mg/kg i.p. 6 h after LPS 15 mg/kg i.p.
[14] = 12.5 mg/kg i.p. 24 h before s.c. E. coli inoculation
[15] = 25 mg/kg i.p. 24 h before s.c. E. coli inoculation
[16] = 50 mg/kg i.p. 24 h before s.c. E. coli inoculation
[17] = 100 mg/kg i.p. 24 h before s.c. E. coli inoculation
[18] = 25 mg/kg i.p. 24 h before i.v. S. aureus
[19] = 50 mg/kg i.p. 24 h before i.v. S. aureus
[20] = 100 mg/kg i.p. 24 h before i.v. S. aureus

Structure (SMILES): Cc1cc2c(cc1C)N(C[C@H](O)[C@H](O)[C@H](O)COP(=O)(O)O)c1[nH]c(=O)[nH]c(=O)c1N2 [FMN-H2, leucoflavin phosphate]
- survival number [1, 3]: 2
- survival rate % [1, 3]: 20%
- survival number [1, 4]: 6
- survival rate % [1, 4]: 60%
- survival number [1, 5]: 8
- survival rate % [1, 5]: 80%
- life-saving effect on endotoxin shock compared with riboflavin sodium phosphate ([1]; mice, from Table 3): about 2 fold
- survival number (E. coli E01292 strain; [6]): 0
- survival rate % (E. coli E01292 strain; [6]): 10%
- survival number (E. coli E01292 strain; [7]): 4
- survival rate % (E. coli E01292 strain; [7]): 40%
- survival number (E. coli E01292 strain; [8]): 6
- survival rate % (E. coli E01292 strain; [8]): 60%
- survival number (E. coli E01292 strain; [9]): 9
- survival rate % (E. coli E01292 strain; [9]): 90%
- infection-protective effect against E. coli compared with riboflavin sodium phosphate (E. coli E01292 strain; mice, from Table 1): about 10 fold
- survival number [2, 10]: 3
- survival rate % [2, 10]: 30%
- survival number [2, 11]: 6
- survival rate % [2, 11]: 60%
- survival number [2, 12]: 8
- survival rate % [2, 12]: 80%
- infection-protective effect against Staphylococcus aureus compared with riboflavin sodium phosphate ([2]; mice, from Table 2): about 10 fold

Structure (SMILES): Cc1cc2nc3c(=O)[nH]c(=O)nc-3n(C[C@H](O)[C@H](O)[C@H](O)COP(=O)(O)O)c2cc1C [VB2Na, riboflavin sodium phosphate, reference compound]
- survival number [1, 4]: 3
- survival rate % [1, 4]: 30%
- survival number [1, 5]: 4
- survival rate % [1, 5]: 40%
- survival number [1, 13]: 7
- survival rate % [1, 13]: 70%
- survival number (E. coli E01292 strain; [14]): 1
- survival rate % (E. coli E01292 strain; [14]): 10%
- survival number (E. coli E01292 strain; [15]): 3
- survival rate % (E. coli E01292 strain; [15]): 30%
- survival number (E. coli E01292 strain; [16]): 5
- survival rate % (E. coli E01292 strain; [16]): 50%
- survival number (E. coli E01292 strain; [17]): 9
- survival rate % (E. coli E01292 strain; [17]): 90%
- survival number [2, 18]: 2
- survival rate % [2, 18]: 20%
- survival number [2, 19]: 4
- survival rate % [2, 19]: 40%
- survival number [2, 20]: 7
- survival rate % [2, 20]: 70%
